Test results from patent publication US20210000782A1, “APPLICATION OF DROFENINE OR SALT THEREOF TO PREPARATION OF MEDICINE FOR TREATING PERIPHERAL NEURON AXONAL INJURY AND PERIPHERAL RELATED NEUROPATHY” (NANJING UNIVERSITY OF CHINESE MEDICINE, priority 2018, published 2021).

How the values were obtained:
[1] = test system: STZ-induced type I diabetic mice; assay: Paw withdrawal experiment (Von Frey, 50% mechanical pain threshold), type I diabetic peripheral neuropathy; format: in vivo, C57BL/6J mice; settings: n = 6
Protocol: (§1) The experiment was based on that when rodents received a mechanical stimulation at their paws, they generated withdrawal reflex. A Von Frey may provide stimulation force in a range of 0.008 g to 300 g. A magnitude of the stimulation force was determined by a thickness and an extending length of a nylon wire. The nylon wire with a proper thickness was selected according to practical conditions in the experiment. The proper extending length was regulated to realize vertical stimulation on the skin. The magnitude of the stimulation force might be regulated by regulating the extending length and changing the nylon wire until the nylon wire bended. The response of mice on the pain was evaluated on the basis.
(§2) 1) Animal grouped administration condition (type I diabetic mice): C57BL/6J mice were purchased from Beijing Vital River. After adaptive feeding for a week, intraperitoneal injection of STZ (180 mg/kg) was performed. Blood glucose was measured after 4-7 days. Mice with the blood glucose higher than 16 mmol/L were randomly selected. After 6 weeks after the STZ injection, grouping was performed according to body weights and the blood glucose to obtain a control group (non-diabetic mice), a model group (DPN mice), drofenine (10 mg/kg), and drofenine (20 mg/kg). Intraperitoneal injection of drofenine was performed for 4 weeks. The motor nerve conduction velocity, mechanical pain and heat pain were respectively tested in 0th week, 4th week and 8th week after the STZ injection.
(§3) 2) Von Frey tactile measuring suits were purchased from a company, and a plantar test instrument was purchased from UGO company.
(§4) 3) Paw withdrawal Experiment: A nylon wire with a proper thickness was selected. A proper extending length was regulated to realize vertical simulation on the skin. The magnitude of stimulation force might be regulated by regulating the extending length and changing the nylon wire until the nylon wire bended. Each mouse was tested for six times to determine a threshold. A 50% mechanical pain threshold of the mice was calculated according to 50% threshold=(10^ (x^f+kδ))/10000.

[2] = test system: db/db type II diabetic mice; assay: Paw withdrawal experiment (Von Frey, 50% mechanical pain threshold), type II diabetic peripheral neuropathy; format: in vivo; settings: n = 6
Protocol: as §1
(§5) 2) Animal grouped administration condition (type II diabetic mice): 16-week-old db/db mice were selected and subjected to adaptive feeding for a week. Grouping was performed according to body weights and blood glucose to obtain a control group, a model group, a drofenine low-dose group (10 mg/kg), and a drofenine medium-dose group (20 mg/kg). Before administration, the motor nerve conduction velocity and a 50% mechanical pain threshold were measured to determine DPN symptoms. Intraperitoneal injection of drofenine was performed for 4 weeks. The mechanical pain, heat pain and motor nerve conduction velocity were tested in each week.
as §3, §4

[3] = test system: db/db type II diabetic mice; assay: Heat pain testing experiment, type II diabetic peripheral neuropathy; format: in vivo; settings: n = 6
Protocol: as §5, §3
(§6) 4) Heat pain testing experiment: An infrared instrument was placed under the sole of the mouse, and kept still. The time was recorded when the paw of the mouse withdrew. This time was heat pain response time of the mouse.

[4] = test system: STZ-induced type I diabetic mice; assay: Heat pain testing experiment, type I diabetic peripheral neuropathy; format: in vivo, C57BL/6J mice; settings: n = 6
Protocol: as §2, §3, §6

[5] = test system: DRG primary cells (peripheral sensory neurons); assay: Growth of peripheral sensory neurites, β-tubulin III fluorescent staining; format: cell-based, C57BL6 mouse; settings: 24 hours incubation with different concentrations of drofenine, FIG. 1 and FIG. 2
Protocol: The experiment was based on that DPN firstly leads to abnormality of sensory neurons, and the main pathological changes were axonal atrophy and degeneration, or even disappearance. For DRG, as peripheral sensory neurons, its neurite growth state is closely related to a development process of the DPN. The inventor of the present invention added DMSO and different concentrations of drofenine into DRG primary cells for common incubation for a certain time. Then, the growth of the neurites was determined by a β-tubulin III fluorescent staining detection method, and lengths were quantified by ImageJ. The effect of the drofenine on promoting the growth of the peripheral sensory neurites was evaluated on the basis.
1) β-tubulin III for fluorescent staining was purchased from Sigma company. All cell culture reagents were purchased from Gibco company. DRG cells were taken from C57BL6 mouse spines.
2) β-tubulin III staining experiment: DRG cells were inoculated in a 12-hole plate at 100 cells/hole. After the DRG cells were attached to a wall overnight, incubation was performed for 24 hours by different concentrations of drofenine. Then, an original culture medium is removed. 4% of paraformaldehyde was added into each hole for immobilization for 15 min. Permeabilization was performed for 5 min by 0.3% Triton. After PBS washing, room-temperature sealing was performed for 1 h. […]

BChE = BChE (Homo sapiens, UniProt P06276); settings: background statement; cited from earlier work
BChE, sequence (P06276 29-602, species assumed): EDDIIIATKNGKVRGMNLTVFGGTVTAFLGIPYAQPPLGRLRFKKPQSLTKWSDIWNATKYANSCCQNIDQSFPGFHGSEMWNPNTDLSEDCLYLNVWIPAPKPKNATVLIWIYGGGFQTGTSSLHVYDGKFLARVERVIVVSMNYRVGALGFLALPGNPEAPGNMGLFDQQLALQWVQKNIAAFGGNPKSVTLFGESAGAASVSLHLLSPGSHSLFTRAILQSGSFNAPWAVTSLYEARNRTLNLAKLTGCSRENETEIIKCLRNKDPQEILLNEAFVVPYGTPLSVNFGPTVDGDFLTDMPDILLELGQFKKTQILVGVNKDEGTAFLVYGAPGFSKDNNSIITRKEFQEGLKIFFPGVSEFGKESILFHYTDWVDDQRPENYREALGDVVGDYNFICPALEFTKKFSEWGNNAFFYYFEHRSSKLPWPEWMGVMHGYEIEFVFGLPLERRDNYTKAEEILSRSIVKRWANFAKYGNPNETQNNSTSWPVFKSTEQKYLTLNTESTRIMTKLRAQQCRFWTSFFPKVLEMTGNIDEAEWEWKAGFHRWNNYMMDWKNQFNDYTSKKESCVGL

[6] = test system: db/db type II diabetic mice; assay: Motor nerve conduction velocity, type II diabetic peripheral neuropathy; format: in vivo; settings: for Motor nerve conduction velocity: db/db mice, n = 6
Protocol: as §5
(§7) 5) Motor nerve conduction velocity testing experiment: (1) Electrode placement: A stimulation electrode was placed at a nerve trunk, a recording electrode was placed at a muscle belly, a reference electrode was placed at a muscle tendon, and a ground wire was placed between the stimulation electrode and the recording electrode. (2) Motor nerve conduction velocity calculation: Super-strong stimulation was performed on distal and proximal ends of the nerve trunk, 2 compound muscle action potentials might be recorded on muscles dominated by this nerve, and different latency periods thereof were measured. The nerve conduction velocity was obtained by dividing a distance between the distal and proximal ends by a latency period difference between two points. A calculation formula was: Nerve conduction velocity (m/s)=distance between two points (cm)×10/latency period difference between two points.

[7] = test system: STZ-induced type I diabetic mice; assay: Motor nerve conduction velocity, type I diabetic peripheral neuropathy; format: in vivo, C57BL/6J mice; settings: for Motor nerve conduction velocity: STZ mice, n = 6
Protocol: as §2, §7

[8] = 10 mg/kg intraperitoneal, administration week 0, mean ± SEM
[9] = 10 mg/kg intraperitoneal, administration week 1, mean ± SEM
[10] = 10 mg/kg intraperitoneal, administration week 2, mean ± SEM
[11] = 10 mg/kg intraperitoneal, administration week 3, mean ± SEM
[12] = 10 mg/kg intraperitoneal, administration week 4, mean ± SEM
[13] = 20 mg/kg intraperitoneal, administration week 0, mean ± SEM
[14] = 20 mg/kg intraperitoneal, administration week 1, mean ± SEM
[15] = 20 mg/kg intraperitoneal, administration week 2, mean ± SEM
[16] = 20 mg/kg intraperitoneal, administration week 3, mean ± SEM
[17] = 20 mg/kg intraperitoneal, administration week 4, mean ± SEM

With `CCN(CC)CCOC(=O)C(c1ccccc1)C1CCCCC1` (stereo not shown) [Drofenine] the “50% paw withdrawal threshold” value [1, 8] was 2.77 ± 0.19 g, the “50% paw withdrawal threshold” value [1, 9] was 2.53 ± 0.25 g and the “50% paw withdrawal threshold” value [1, 10] was 1.31 ± 0.13 g. For the same molecule, the “50% paw withdrawal threshold” value [1, 11] was 1.40 ± 0.13 g, the “50% paw withdrawal threshold” value [1, 12] was 1.45 ± 0.11 g and the “50% paw withdrawal threshold” value [1, 13] was 2.77 ± 0.19 g. The “50% paw withdrawal threshold” value [1, 14] was 2.06 ± 0.31 g, the “50% paw withdrawal threshold” value [1, 15] was 1.31 ± 0.13 g and the “50% paw withdrawal threshold” value [1, 16] was 1.27 ± 0.12 g. For the same molecule, the “50% paw withdrawal threshold” value [1, 17] was 1.35 ± 0.10 g, the “50% paw withdrawal threshold” value [2, 8] was 2.81 ± 0.17 g and the “50% paw withdrawal threshold” value [2, 9] was 2.82 ± 0.22 g. For the same molecule, the “50% paw withdrawal threshold” value [2, 10] was 2.21 ± 0.13 g, the “50% paw withdrawal threshold” value [2, 11] was 2.09 ± 0.34 g and the “50% paw withdrawal threshold” value [2, 12] was 1.98 ± 0.21 g. For the same molecule, the “50% paw withdrawal threshold” value [2, 13] was 2.83 ± 0.19 g, the “50% paw withdrawal threshold” value [2, 14] was 2.62 ± 0.26 g and the “50% paw withdrawal threshold” value [2, 15] was 2.01 ± 0.13 g. The “50% paw withdrawal threshold” value [2, 16] was 1.92 ± 0.12 g, the “50% paw withdrawal threshold” value [2, 17] was 1.82 ± 0.01 g and the Heat response [3, 8] was 10.43 ± 0.98 s. The Heat response [3, 9] was 13.52 ± 0.69 s, the Heat response [3, 10] was 10.58 ± 0.32 s and the Heat response [3, 11] was 8.96 ± 0.56 s. For the same molecule, the Heat response [3, 12] was 9.78 ± 0.56 s, the Heat response [3, 13] was 10.39 ± 0.30 s and the Heat response [3, 14] was 10.77 ± 0.54 s. The Heat response [3, 15] was 8.54 ± 0.79 s, the Heat response [3, 16] was 8.51 ± 0.55 s and the Heat response [3, 17] was 8.01 ± 0.68 s. For the same molecule, the Heat response [4, 8] was 11.43 ± 0.98 s, the Heat response [4, 9] was 11.12 ± 0.66 s and the Heat response [4, 10] was 10.28 ± 0.68 s. The Heat response [4, 11] was 8.96 ± 0.26 s, the Heat response [4, 12] was 8.78 ± 0.26 s and the Heat response [4, 13] was 10.3 ± 0.60 s. For the same molecule, the Heat response [4, 14] was 10.77 ± 0.94 s, the Heat response [4, 15] was 8.64 ± 0.69 s and the Heat response [4, 16] was 7.91 ± 0.54 s. For the same molecule, the Heat response [4, 17] was 7.71 ± 0.68 s, the “growth of the peripheral sensory neurites” value [5] was “promote the growth (quantitative diagram) of the peripheral sensory neurites in a concentration dependent way” and the BChE inhibition (BChE) was “effective BChE competitive inhibitor”. The “Motor nerve conduction velocity” value [6, 8] was 34.61 ± 1.06 m/s, the “Motor nerve conduction velocity” value [6, 9] was 36.55 ± 2.14 m/s and the “Motor nerve conduction velocity” value [6, 10] was 38.23 ± 3.20 m/s. The “Motor nerve conduction velocity” value [6, 11] was 39.34 ± 2.89 m/s, the “Motor nerve conduction velocity” value [6, 12] was 40.12 ± 2.87 m/s and the “Motor nerve conduction velocity” value [6, 13] was 35.63 ± 1.03 m/s. The “Motor nerve conduction velocity” value [6, 14] was 38.82 ± 1.37 m/s, the “Motor nerve conduction velocity” value [6, 15] was 40.23 ± 2.02 m/s and the “Motor nerve conduction velocity” value [6, 16] was 41.56 ± 2.35 m/s. For the same molecule, the “Motor nerve conduction velocity” value [6, 17] was 42.28 ± 2.26 m/s, the “motor nerve conduction velocity and sensation loss of db/db type II diabetic peripheral neuropathy” value ([6]; summary in words of Tables 4-6, db/db mice) was “significantly relieve” and the “Motor nerve conduction velocity” value [7, 8] was 39.61 ± 1.06 m/s. For the same molecule, the “Motor nerve conduction velocity” value [7, 10] was 40.55 ± 2.14 m/s, the “Motor nerve conduction velocity” value [7, 13] was 40.63 ± 1.03 m/s and the “Motor nerve conduction velocity” value [7, 15] was 43.82 ± 1.37 m/s. The “motor nerve conduction velocity and sensation loss of the type I diabetic peripheral neuropathy” value ([7]; summary in words of Tables 1-3, STZ mice) was “significantly relieve”.
